In patent US20060264411A1, “Control of biofilm formation” (priority 2005, published 2006):

Key:
E. coli UTI89[pCOMGFP] = test: Biofilm pods / intracellular bacterial communities (IBC) in mouse bladders, confocal microscopy; type: in vivo, C3H/HeN mice; details: for reduction in biofilm pods or intracellular bacterial communities (IBC) in the bladders of mice as compared to the controls: experiment 1: 40 μg/ml intravesical, 30 min pre-incubation, 10^8 CFU, five hours
Procedure: The experiment was performed using the procedures described in Justice, S. et al., Differentiation and development pathways of uropathogenic Escherichia coli in urinary tract pathogenesis.PNAS, 2004, 101(5), p. 1333-1338. Briefly, E. coli UTI89[pCOMGFP] was prepared after retrieval from frozen stocks by inoculating in LB medium statically for approximately 20 hours. Cells were harvested and suspended in 1 ml of PBS. Cells were diluted to achieve approximately a 10^8 CFU or 10^7 CFU input into C3H/HeN mice (2 mice per group).
Mice were deprived of water for approximately two hours. In experiment 1, all mice were anesthetized with 0.15 cc ketamine cocktail. In experiment 2, all mice were anesthetized with isofluorane. In experiment 1, urine was dispelled from the bladders and approximately 40 μg/ml of test compound or an appropriate amount of ethanol as control was introduced into the bladders via catheterization of the urethra using a tubing coated tuberculin syringe. 30 minutes was allowed to elapse. In experiment 2, bladders were not pre-incubated with test compounds. Bladders were then expelled and an inoculum of 10^8 CFU (Experiment 1) or 10^7 CFU (Experiment 2) of E. coli containing 40 μg/ml of test compound or equivalent amount of ethanol as controls were introduced into the bladders as indicated above.
In experiment 1 five hours elapsed and in experiment 2 six hours elapsed, and then mice were anesthetized and sacrificed. The bladders were removed, bisected, stretched, and fixed in 3% paraformaldehyde for 1 hour at room temperature. Bladders were then permeabilized in 0.01% Triton/PBS for 10 minutes and counter stained with TOPRO3 (Molecular Probes) for 10 minutes for visualization by confocal microscopy. Bladders were mounted on Prolong antifade (Molecular Probes).

[1] = test system: P. aeruginosa strain PAO1; test: Rotating disk reactor (RDR) biofilm test with and without tobramycin; type: cell-based, Pseudomonas aeruginosa; details: test compound 100 μg/ml 24 h; for Test Compound, log10 CFU: no tobramycin; for Tobramycin and Test Compound, log10 CFU: then tobramycin 100 μg/ml 2 h
Procedure: Biofilm formation of P. aeruginosa was evaluated using a standardized biofilm method with a rotating disk reactor (RDR). This method provides a model resembling the formation of biofilms in cystic fibrosis patients. The rotating disk reactor consists of a one-liter glass beaker fitted with a drain spout. The bottom of the vessel contains a magnetically driven rotor with six 1.27 cm diameter coupons constructed from polystyrene. The rotor consists of a star-head magnetic stir bar upon which a disk was affixed to hold the coupons. The vessel with the stir bar was placed on a stir plate and rotated to provide fluid shear. A nutrient solution (AB Trace Medium with 0.3 mM glucose, see Table 1 below for composition) was added through a stopper in the top of the reactor at a flow rate of 5 ml/min. The reactor volume was approximately 180 ml and varied slightly between reactors depending on the placement of the drain spout and the rotational speed of the rotor. At a volume of 180 ml, the residence time of the reactors was 36 minutes. The reactors were operated at room temperature (c.a. 26° C.).
For each test, two RDRs were operated in parallel with one receiving test compound and the other serving as an untreated control. The RDRs were sterilized by autoclave, then filled with sterile medium and inoculated with P. aeruginosa strain PAO1. The reactors were then incubated at room temperature in batch mode (no medium flow) for a period of 24 hours, after which the flow was initiated for a further 24 hour incubation. Test compounds were dissolved in 10 ml ethanol to achieve a concentration of 1.8 mg/ml. After the 48 hours of biofilm development described above, the 10 ml of ethanol containing the test compounds were added to the reactor to achieve a final concentration of approximately 50, 100, or 200 μg/ml. Control reactors received 10 ml of ethanol. The reactors were then incubated for an additional 24 hours in batch (no flow) mode. After this incubation period, the six coupons were removed from each reactor and placed in 12-well polystyrene tissue culture plates with wells containing either 2 ml of a 100 μg/ml tobramycin solution or 2 ml of phosphate-buffered saline (PBS). These plates were incubated at room temperature for two hours. The coupons were then rinsed by three transfers to plates containing 2 ml of fresh PBS. For each two RDR reactors run in parallel, four sets of three coupons were obtained: one set with no test compound treatment and no tobramycin treatment, one set with no test compound treatment and tobramycin treatment, one set treated with a test compound treatment and no tobramycin treatment, and one set treated with a test compound treatment and tobramycin. After rinsing, one coupon of each set of three was stained with a LIVE/DEAD® BacLight™ Bacterial Viability Kit (Molecular Probes, Eugene Oreg.) and imaged using epifluorescent microscopy. The remaining two coupons were placed in 10 ml of PBS and sonicated for five minutes to remove and disperse biofilm cells. The resulting bacterial suspensions were then serially diluted in PBS and plated on tryptic soy agar plates for enumeration of culturable bacteria. The plates were incubated for 24 hours at 37° C. before colony forming units (CFU) were determined.
The results are averages from experiments performed on three separate days for each test compound. The values reported are as log10 CFU.

[2] = test system: E. coli clinical strain UTI89; test: Biofilm formation inhibition, crystal violet, E. coli clinical strain UTI89; type: cell-based; details: Escherichia coli, 20 ug/ml, read-out: inhibited biofilm formation
Procedure: (§1) Biofilm inhibition experiments were conducted using an assay adapted from the reported protocol described in Pratt and Kolter, 1998, Molecular Microbiology, 30: 285-293; Li et al., 2001, J. Bacteriol., 183: 897-908. E. coli clinical strain UTI89 was grown in LB in 96 well plates at room temperature for one or two days without shaking. E. coli laboratory strain JM109 was grown in LB plus 0.2% glucose in 96 well plates at room temperature for one day without shaking. To quantify the biofilm mass, the suspension culture was poured out and the biofilm was washed three times with water. The biofilm was stained with 0.1% crystal violet for 20 minutes. The plates were then washed three times with water. OD reading at 540 nm was measured to quantify the biofilm mass at the bottom of the wells. Then 95% ethanol was added to dissolve the dye at the bottom and on the wall and the OD reading at 540 nm was measured to quantify the total biofilm mass. To study the overall effect of the compounds (3.6 mg/mL in 100% ethanol as stock solution), it was added with the inoculation and a time course of biofilm mass was measured. Appropriate amounts of 100% ethanol were added to each sample to eliminate the effect of solvent. Each condition had 3-4 replicates on each plate and was performed over multiple days.

[3] = test system: E. coli clinical strain UTI89; test: Invasion of E. coli UTI89 into bladder epithelial cells; type: cell-based
Procedure: The effect of test compounds on bacterial invasion of E. coli clinical strain UTI89 was studied as described in Elsinghorst, et al. 1994, Methods Enzymol, 236:405-420; and Martinez et al., 2000, EMBO J., 19:2803-2812. Epithelial bladder cells were grown in plates. Asiatic acid, corosolic acid, or ursolic acid were added at concentrations of 10 μg/ml, 20 μg/ml, or 40 μg/ml to bacteria and epithelial cells for approximately 5, 15, 30, or 60 minutes with approximately 10^7 CFU of E. coli. Binding was assessed at time zero and invasion was assessed at approximately 5, 15, 30, or 60 minutes from completing the mixture of compound, bacteria, and epithelial cells. As a control ethanol was added to cells to a final concentration of 0.1%. The effect of bacterial viability and bacterial adherence during the infection period was evaluated according to the methods described in Martinez et al., 2000, EMBO J., 19:2803-2812.

[4] = test system: E. coli laboratory strain JM109; test: Biofilm formation inhibition, crystal violet, E. coli laboratory strain JM109; type: cell-based; details: Escherichia coli, read-out: inhibited biofilm formation as compared to the controls
Procedure: as §1

[5] = Bladder concentrations in rats after oral dose; details: rat, in vivo; rats; 50 mg/kg oral, single bolus in 50% Labrasol; at 24 hours; read-out: concentration in the bladder
Procedure: Pharmacokinetic studies of asiatic acid and madecassic acid in rats were performed separately. Asiatic acid and madecassic acid were evaluated at 50 mg/kg (oral). Two animals were assigned to each group. Prior to dosing, a baseline blood sample was taken from each animal. At time zero, asiatic acid and madecassic acid, a single bolus dose in 50% Labrasol (Gattefosse) was given to each animal. Bladders were analyzed at 24 hours. Concentrations of both asiatic acid and madecassic acid in the bladder were approximately 30 μg/g at 24 hours.

bacterial invasion = test: Bacterial invasion statement of Example 9; details: within 15 minutes of administration
cysB gene = details: examples of U.S. patent application Ser. No. 11/085,279; cited from earlier work
[6] = 40 μg/ml, 60 minutes, separate experiments (n=4-7)

## C[C@H]1[C@H](C)CC[C@]2(C(=O)O)CC[C@]3(C)C(=CC[C@@H]4[C@@]5(C)C[C@@H](O)[C@H](O)C(C)(C)[C@@H]5CC[C@]43C)[C@H]12 [Corosolic acid, corosolic acid]
E. coli UTI89[pCOMGFP]
  reduction in biofilm pods or intracellular bacterial communities (IBC) in the bladders of mice as compared to the controls: 94%
E. coli UTI89[pCOMGFP]; experiment 2: 40 μg/ml with inoculum, no pre-incubation, 10^7 CFU, six hours
  reduction in large biofilm pods or large IBC in the bladders of mice as compared to the controls: ~60%
E. coli UTI89[pCOMGFP]; mouse inoculated with E. coli UTI89 and compound, control shows an IBC (FIG. 2)
  appearance of E. coli in mouse bladder, confocal microscopy image (FIG. 3): small collection of E coli
[1]
  Test Compound, log10 CFU: 7.3 log10 CFU
  Tobramycin and Test Compound, log10 CFU: 4.2 log10 CFU
[2]
  inhibition at 20 µg/mL: ~85%
[3]; 20 μg/ml, 60 minutes, separate experiments (n=4)
  reduced invasion of E. coli into bladder epithelial cells as compared to the controls: 65%
[3]; 40 μg/ml, 5 minutes, time series, triplicate
  reduced invasion of E. coli into bladder epithelial cells as compared to the controls: 10%
[3]; 40 μg/ml, 15 minutes, time series, triplicate
  reduced invasion of E. coli into bladder epithelial cells as compared to the controls: 70%
[3]; [6]
  reduced invasion of E. coli into bladder epithelial cells as compared to the controls: 90%
[3]; 40 μg/ml, 60 minutes, time series, triplicate
  reduced invasion of E. coli into bladder epithelial cells as compared to the controls: 90%

## C[C@H]1[C@H](C)CC[C@]2(C(=O)O)CC[C@]3(C)C(=CC[C@@H]4[C@@]5(C)C[C@@H](O)[C@H](O)[C@@](C)(CO)[C@@H]5[C@H](O)C[C@]43C)[C@H]12 [Madecassic acid, madecassic acid]
[1]
  Test Compound, log10 CFU: 7.5 log10 CFU
  Tobramycin and Test Compound, log10 CFU: 5.5 log10 CFU
[4]; JM 109, 5 ug/ml
  inhibition at 5 µg/mL: ~60%
[4]; JM 109, 10 ug/ml
  inhibition at 10 µg/mL: ~75%
[5]
  concentration at 24 h: ~30000 ng/g
Bacterial invasion
  bacterial invasion (in words): significantly reduced bacterial invasion

## C[C@H]1[C@H](C)CC[C@]2(C(=O)O)CC[C@]3(C)C(=CC[C@@H]4[C@@]5(C)CC[C@H](O)C(C)(C)[C@@H]5CC[C@]43C)[C@H]12 [ursolic acid]
cysB gene
  expression of a cysB gene in E. coli: modulate the expression of a cysB gene
E. coli UTI89[pCOMGFP]
  reduction in biofilm pods or intracellular bacterial communities (IBC) in the bladders of mice as compared to the controls: 70%
[3]; [6]
  reduced invasion of E. coli into bladder epithelial cells as compared to the controls: 76%
